ChEMBL document CHEMBL3826905, “1'-Homonucleosides and their structural analogues: A review” (Eur J Med Chem, 2016)
Converted amounts (≈) assume the structure as drawn.

Legend:
[1] = Antiproliferative activity against human Molt4/C8 cells; format: functional, cell-based; settings: MOLT-4
[2] = tested on: Human immunodeficiency virus 2; experiment: Antiviral activity against HIV2; format: functional, organism-based
[3] = Antiproliferative activity against mouse L1210/0 cells; format: functional, cell-based
[4] = tested on: Human immunodeficiency virus 1; experiment: Antiviral activity against HIV1; format: functional, organism-based
[5] = Antiproliferative activity against mouse L1210/0 cells after 48 hrs by trypan blue staining method; format: functional, cell-based; settings: L1210/0, 48 h
[6] = Inhibition of Escherichia coli methionyl-tRNA synthetase assessed as decrease in [35S]methionyl-tRNA generation
[7] = tested on: CCRF-CEM; experiment: Growth inhibition of human CCRF-CEM cells; format: functional, cell-based
[8] = tested on: Hepatitis C virus; experiment: Antiviral activity against Hepatitis C virus; format: functional, organism-based, Hepacivirus hominis
[9] = target: Isoleucine--tRNA ligase (Escherichia coli K-12, UniProt P00956); experiment: Inhibition of Escherichia coli isoleucyl-tRNA synthetase assessed as decrease in [3H]isoleucyl-tRNA generation
[10] = tested on: Human alphaherpesvirus 3; experiment: Antiviral activity against TK-deficient Varicella-zoster virus infected in HEL cells; format: functional, organism-based; settings: Human alphaherpesvirus 3, HEL
[11] = tested on: Cytomegalovirus; experiment: Antiviral activity against Cytomegalovirus Davis 07/1 infected in HEL cells; format: functional, organism-based; settings: Human betaherpesvirus 5, Davis 07/1, HEL
[12] = tested on: Cytomegalovirus; experiment: Antiviral activity against Cytomegalovirus AD169 infected in HEL cells; format: functional, organism-based; settings: Human betaherpesvirus 5, AD169, HEL
[13] = tested on: Vesicular stomatitis virus; experiment: Antiviral activity against Vesicular stomatitis virus; format: functional, organism-based
[14] = tested on: Vaccinia virus; experiment: Antiviral activity against Vaccinia virus; format: functional, organism-based; settings: Orthopoxvirus vaccinia
[15] = tested on: CCRF-CEM; experiment: Cytostatic activity against human CEM cells; format: functional
[16] = Cytostatic activity against mouse L1210/0 cells; format: functional, cell-based
[17] = tested on: MOLT-4; experiment: Cytostatic activity against human Molt4/C8 cells; format: functional, cell-based
[18] = Antiproliferative activity against human CEM/0 cells; format: functional, cell-based; settings: CCRF-CEM
[19] = target: T1, Inosine-adenosine-guanosine-nucleoside hydrolase (Trypanosoma brucei brucei, UniProt O15727); experiment: Inhibition of Trypanosoma brucei brucei inosine-adenosine-guanosine nucleoside hydrolase expressed in Escherichia coli
T1 sequence (O15727 whole entry): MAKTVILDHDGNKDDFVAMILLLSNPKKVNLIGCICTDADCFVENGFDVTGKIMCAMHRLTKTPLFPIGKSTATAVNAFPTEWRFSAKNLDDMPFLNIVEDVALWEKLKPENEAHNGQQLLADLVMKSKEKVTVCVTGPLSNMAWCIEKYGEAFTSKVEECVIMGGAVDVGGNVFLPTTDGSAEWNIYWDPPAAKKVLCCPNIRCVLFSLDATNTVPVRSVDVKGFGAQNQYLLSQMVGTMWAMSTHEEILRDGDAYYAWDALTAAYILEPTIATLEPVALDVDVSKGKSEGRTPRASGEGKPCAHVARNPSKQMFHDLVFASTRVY

[20] = target: T2, Inosine-uridine preferring nucleoside hydrolase (Crithidia fasciculata, UniProt Q27546); experiment: Inhibition of Crithidia fasciculata inosine-uridine nucleoside hydrolase expressed in Escherichia coli using p-nitrophenyl beta-D-ribofuranoside as substrate by xanthine oxidase coupled enzyme assay
T2 sequence (Q27546 whole entry): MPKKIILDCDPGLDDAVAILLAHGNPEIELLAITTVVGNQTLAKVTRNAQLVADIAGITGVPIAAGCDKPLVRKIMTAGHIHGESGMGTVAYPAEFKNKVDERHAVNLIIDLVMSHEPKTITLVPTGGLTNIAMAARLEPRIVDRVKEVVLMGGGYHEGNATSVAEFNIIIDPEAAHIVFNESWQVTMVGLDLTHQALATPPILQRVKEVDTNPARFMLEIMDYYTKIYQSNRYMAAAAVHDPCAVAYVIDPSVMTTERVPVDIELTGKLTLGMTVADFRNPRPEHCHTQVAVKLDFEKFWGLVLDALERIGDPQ

[21] = tested on: Human immunodeficiency virus 1; experiment: Antiviral activity against HIV1 infected in human CEM cells assessed as protection against virus-induced cytopathicity by giant cell formation assay; format: functional, organism-based; settings: Human immunodeficiency virus 1, CCRF-CEM
[22] = tested on: Human immunodeficiency virus 2; experiment: Antiviral activity against HIV2 infected in human CEM cells assessed as protection against virus-induced cytopathicity by giant cell formation assay; format: functional, organism-based; settings: Human immunodeficiency virus 2, CCRF-CEM
[23] = Cytotoxicity against MDCK cells; format: cell-based, Canis lupus familiaris; settings: dog
[24] = Cytotoxicity against human CEM/0 cells; format: cell-based, CCRF-CEM
[25] = Cytotoxicity against HEL cells; format: cell-based; settings: human
[26] = Cytotoxicity against human E6SM cells; format: cell-based
[27] = Cytotoxicity against African green monkey Vero cells; format: cell-based; settings: chlorocebus sabaeus
[28] = Cytotoxicity against human HeLa cells; format: cell-based
[29] = tested on: Cytomegalovirus; experiment: Antiviral activity against Cytomegalovirus Davis infected in HEL cells assessed as inhibition of virus plaque formation; format: functional, organism-based; settings: Human betaherpesvirus 5, Davis
[30] = tested on: Cytomegalovirus; experiment: Antiviral activity against Cytomegalovirus AD169 infected in HEL cells assessed as inhibition of viral plaque formation; format: functional, organism-based; settings: Human betaherpesvirus 5, AD169, HEL

Chain of Isoleucine--tRNA ligase (P00956 whole entry): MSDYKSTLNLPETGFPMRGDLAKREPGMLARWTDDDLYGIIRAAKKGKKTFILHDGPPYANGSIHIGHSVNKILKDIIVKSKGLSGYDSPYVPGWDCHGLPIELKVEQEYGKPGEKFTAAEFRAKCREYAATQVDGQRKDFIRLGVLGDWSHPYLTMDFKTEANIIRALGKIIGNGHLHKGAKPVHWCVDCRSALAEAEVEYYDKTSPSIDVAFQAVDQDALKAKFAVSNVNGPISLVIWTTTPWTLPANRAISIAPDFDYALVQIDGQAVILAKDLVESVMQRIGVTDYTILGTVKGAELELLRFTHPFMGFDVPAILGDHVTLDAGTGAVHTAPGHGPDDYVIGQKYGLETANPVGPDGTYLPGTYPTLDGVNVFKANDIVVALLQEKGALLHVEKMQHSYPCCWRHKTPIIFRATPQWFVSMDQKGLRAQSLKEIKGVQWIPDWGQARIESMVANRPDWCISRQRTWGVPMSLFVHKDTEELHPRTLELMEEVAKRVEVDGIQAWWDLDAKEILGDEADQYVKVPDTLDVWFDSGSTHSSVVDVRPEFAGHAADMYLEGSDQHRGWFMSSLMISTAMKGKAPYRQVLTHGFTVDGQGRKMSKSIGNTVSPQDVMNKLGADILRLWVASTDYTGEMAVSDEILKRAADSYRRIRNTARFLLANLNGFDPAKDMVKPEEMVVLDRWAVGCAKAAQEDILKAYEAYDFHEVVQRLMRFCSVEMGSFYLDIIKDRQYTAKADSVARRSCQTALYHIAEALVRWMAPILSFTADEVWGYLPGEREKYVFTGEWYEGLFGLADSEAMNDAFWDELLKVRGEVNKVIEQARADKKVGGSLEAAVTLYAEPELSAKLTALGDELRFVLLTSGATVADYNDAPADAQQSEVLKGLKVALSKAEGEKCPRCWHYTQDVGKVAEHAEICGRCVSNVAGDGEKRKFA

CC1(C)[C@@H](Cn2cnc3c(Cl)nc(N)nc32)CC[C@@]1(C)CO
IC50 [1]: 13.2 µg/mL (≈ 40.8 µM) | EC50 [2]: 4 µg/mL (≈ 12.4 µM) | IC50 [3]: 16.2 µg/mL (≈ 50 µM) | EC50 [4]: 4 µg/mL (≈ 12.4 µM)

Nc1nc(NC2CCCC2)c2ncn(C[C@@H]3C[C@H](CO)c4c(-c5ccccc5)nnc(-c5ccccc5)c43)c2n1
IC50 [5]: 65.7 µM

CSCC[C@H](N)C(=O)OC[C@H]1O[C@@H](n2cnc3c(N)ncnc32)[C@H](O)[C@@H]1O
IC50 [6]: 5 µM

Clc1ncnc2c1ncn2CC12CCC(O1)c1cc3ccccc3cc12 (stereo not given)
IC50 [7]: 5.73 µM | EC50 [8]: 6.31 µM

CSCC[C@H](N)C(=O)OC[C@H]1O[C@@H](CCn2cnc3c(N)ncnc32)[C@H](O)[C@@H]1O
IC50 [6]: 8.3 µM

CSCC[C@H](N)C(=O)OC[C@H]1O[C@@H](Cn2cnc3c(NCc4ccccc4)ncnc32)[C@H](O)[C@@H]1O
IC50 [6]: 3.6 µM

CC[C@H](C)[C@H](N)C(=O)N(O)C[C@H]1O[C@@H](Cn2cnc3c(N)ncnc32)[C@H](O)[C@@H]1O
IC50 [9]: > 128 µM

CC(C)(C)[Si](OC[C@H]1C[C@@H](Cn2cnc3c(Cl)nc(N)nc32)c2cn(Cc3ccccc3)nc21)(c1ccccc1)c1ccccc1
EC50 [10]: 2100 nM | EC50 [11]: 390 nM | EC50 [12]: 440 nM

Cc1ccc(S(=O)(=O)OC[C@H]2OC[C@@H]3OCO[C@@H]32)cc1
IC50 [13]: > 400 µg/mL | IC50 [14]: > 400 µg/mL

CC1(C)[C@@H](CO)CC[C@@]1(C)Cn1cnc2c(Cl)ncnc21
Activity [15]: 14 µg/mL | Activity [16]: 13 µg/mL | Activity [17]: 9 µg/mL

O=c1[nH]c(=O)n(C2CCCC2CO)cc1I (stereo not given)
IC50 [1]: 65.8 µg/mL (≈ 196 µM) | IC50 [3]: 65.8 µg/mL (≈ 196 µM) | IC50 [18]: 65.8 µg/mL (≈ 196 µM)

Nc1nc(O)c2ncn(C[C@@H]3N[C@H](CO)[C@@H](O)[C@H]3O)c2n1
Ki [19]: 3600 nM | Ki [20]: 5400 nM

O=c1[nH]c(=O)n([C@H]2CCC[C@H]2CO)cc1I
EC50 [21]: 12.5 µg/mL (≈ 37.2 µM) | EC50 [22]: 12.5 µg/mL (≈ 37.2 µM)

Nc1ncnc2c1ncn2C[C@H]1CC[C@@H](CO)C1
CC50 [23]: 80 µg/mL (≈ 323 µM) | CC50 [24]: 80 µg/mL (≈ 323 µM) | CC50 [25]: 80 µg/mL (≈ 323 µM) | IC50 [1]: 73 µg/mL (≈ 295 µM) | CC50 [26]: 80 µg/mL (≈ 323 µM) | CC50 [27]: 80 µg/mL (≈ 323 µM) | IC50 [3]: 73 µg/mL (≈ 295 µM) | CC50 [28]: 80 µg/mL (≈ 323 µM)

Nc1nc(Cl)c2ncn(C[C@H]3CCC[C@H]3CO)c2n1
IC50 [29]: > 5 µg/mL | IC50 [30]: > 5 µg/mL

CC[C@H](C)[C@H](N)C(=O)OC[C@H]1O[C@@H](Cn2cnc3c(N)ncnc32)[C@H](O)[C@@H]1O
IC50 [9]: > 128 µM

Nc1ncnc2c1N=CC2[C@@H]1N[C@H](CO)[C@@H](O)[C@H]1O (stereo not given in full)
Ki [19]: 3 nM | Ki [20]: 7 nM

Nc1ncnc2c1ncn2C[C@H]1C=C[C@@H](CO)C1
IC50 [5]: > 200 µM
